Measured values taken from patent US20160039879A1, “NOVEL CYCLOSPORIN DERIVATIVES AND USES THEREOF” (S&T Global Inc., priority 2013, published 2016).
Starred links: 1 amine or outer side, 2 acyl side, 3 side chain; linkers in the order of their positions; H or OH if unused. Non-standard residues stand in square brackets, D forms with d. Residues, ends and D or L forms follow the SMILES beside them. ξ: configuration not given here. X12 = COc1ccc(COC(C)(C)C[C@@H](C(=O)[*:2])N(C)[*:1])cc1; X8 = CN([C@@H](CC(C)(C)OCc1ccccc1)C(=O)[*:2])[*:1]; MeBmt = C/C=C/C[C@@H](C)[C@@H](O)[C@H](NC)C(=O)O; X3 = CN([C@H](SCCCN1CCOCC1)C(=O)[*:2])[*:1]; X1 = CCN(CC)CCCS[C@H](C(=O)[*:2])N(C)[*:1]; X7 = CCN(CC)CCS[C@@H](C(=O)[*:2])N(C)[*:1]; X13 = CCOCOC(C)(C)CC(C(=O)[*:2])N(C)[*:1]; X2 = CCN(CC)CCS[C@H](C(=O)[*:2])N(C)[*:1]; X4 = CC=CCC(C)C(O)C(C(=O)[*:2])N(C)[*:1]; X9 = CN(C(SCCCN1CCOCC1)C(=O)[*:2])[*:1]; NMeIle(3ξ) = CCC(C)[C@H](NC)C(=O)O; NMeL = CN[CH](CC(C)C)C(=O)O; NMeV = CN[CH](C(=O)O)C(C)C; Abu = CC[CH](N)C(=O)O

The molecules below were run on HCV replicon in cell line ET (luc-ubi-neo/ET), Huh7 human hepatoma cell line (assay: HCV subgenomic replicon assay (luciferase end point)). Conditions: Hepatitis C virus, Huh-7, Table 10, HCV replicon, read-out: Antiviral activity EC50.
Format: cell-based

With `C/C=C/C[C@@H](C)[C@@H](O)[C@H]1C(=O)N[C@@H](CC)C(=O)N(C)[C@H](SCCN(CC)CC)C(=O)N(C)[C@@H](C(C)CC)C(=O)N[C@@H](C(C)C)C(=O)N(C)[C@@H](CC(C)C)C(=O)N[C@@H](C)C(=O)N[C@H](C)C(=O)N(C)[C@@H](CC(C)C)C(=O)N(C)[C@@H](CC(C)C)C(=O)N(C)[C@@H](C(C)C)C(=O)N1C` (stereo partly drawn) [[(R)-2-(N,N-Diethylamino)ethylthio-Sar]-3-[NMeIle]-4-cyclosporin] (cyclo(A[dA][NMeL][NMeL][NMeV][MeBmt][Abu][X2][NMeIle(3ξ)]V[NMeL])) the EC50 was 40 nM.

Same assay, conditions: Hepatitis C virus, Huh-7, Table 11, HCV replicon, read-out: Antiviral activity EC50

`C/C=C/C[C@@H](C)[C@@H](O)[C@H]1C(=O)N[C@@H](CC)C(=O)N(C)[C@H](SCCCN(CC)CC)C(=O)N(C)[C@@H](CC(C)(C)O)C(=O)N[C@@H](C(C)C)C(=O)N(C)[C@@H](CC(C)C)C(=O)N[C@@H](C)C(=O)N[C@H](C)C(=O)N(C)[C@@H](CC(C)C)C(=O)N(C)[C@@H](CC(C)C)C(=O)N(C)[C@@H](C(C)C)C(=O)N1C` [[(R)-3-(N,N Diethylamino)propylthio-Sar]-3-[(γ-hydroxy)-NMeLeu]-4-cyclosporin] and `C/C=C/C[C@@H](C)[C@@H](O)[C@H]1C(=O)N[C@@H](CC)C(=O)N(C)[C@H](SCCCN2CCOCC2)C(=O)N(C)[C@@H](CC(C)(C)O)C(=O)N[C@@H](C(C)C)C(=O)N(C)[C@@H](CC(C)C)C(=O)N[C@@H](C)C(=O)N[C@H](C)C(=O)N(C)[C@@H](CC(C)C)C(=O)N(C)[C@@H](CC(C)C)C(=O)N(C)[C@@H](C(C)C)C(=O)N1C` [[(R)-3-(N-Morpholino)propylthio-Sar]-3-[(γ-hydroxy)-NMeLeu]-4-cyclosporin] are within 1.5-fold of each other in EC50: 70 nM for the first, 50 nM for the second.

For `C/C=C/C[C@@H](C)[C@@H](O)[C@H]1C(=O)N[C@@H](CC)C(=O)N(C)[C@H](SCCCN2CCOCC2)C(=O)N(C)[C@@H](CC(C)(C)OC)C(=O)N[C@@H](C(C)C)C(=O)N(C)[C@@H](CC(C)C)C(=O)N[C@@H](C)C(=O)N[C@H](C)C(=O)N(C)[C@@H](CC(C)C)C(=O)N(C)[C@@H](CC(C)C)C(=O)N(C)[C@@H](C(C)C)C(=O)N1C` [[(R)-3-(N-Morpholino)propylthio-Sar]-3-[(γ-methoxy)-NMeLeu]-4-cyclosporin], the EC50 was 60 nM.

Same assay, conditions: Hepatitis C virus, Huh-7, Table 13, HCV replicon, read-out: Antiviral activity EC50

`C/C=C/C[C@@H](C)[C@@H](O)[C@H]1C(=O)N[C@@H](CC)C(=O)N(C)[C@H](CSCCN(C)C)C(=O)N(C)[C@@H](CC(C)C)C(=O)N[C@@H](C(C)C)C(=O)N(C)[C@@H](CC(C)C)C(=O)N[C@@H](C)C(=O)N[C@H](C)C(=O)N(C)[C@@H](CC(C)C)C(=O)N(C)[C@@H](CC(C)C)C(=O)N(C)[C@@H](C(C)C)C(=O)N1C` (single isomer, unassigned) [Example 6, isomer B] and `C/C=C/C[C@@H](C)[C@@H](O)[C@H]1C(=O)N[C@@H](CC)C(=O)N(C)[C@H](CSCCN(CC)CC)C(=O)N(C)[C@@H](CC(C)C)C(=O)N[C@@H](C(C)C)C(=O)N(C)[C@@H](CC(C)C)C(=O)N[C@@H](C)C(=O)N[C@H](C)C(=O)N(C)[C@@H](CC(C)C)C(=O)N(C)[C@@H](CC(C)C)C(=O)N(C)[C@@H](C(C)C)C(=O)N1C` (single isomer, unassigned) [Example 7, isomer B] are within 1.5-fold of each other in EC50: 170 nM for the first, 160 nM for the second.

`C/C=C/C[C@@H](C)[C@@H](O)[C@H]1C(=O)N[C@@H](CC)C(=O)N(C)[C@H](SCCCN(CC)CC)C(=O)N(C)[C@@H](C(C)C)C(=O)N[C@@H](C(C)C)C(=O)N(C)[C@@H](CC(C)C)C(=O)N[C@@H](C)C(=O)N[C@H](C)C(=O)N(C)[C@@H](CC(C)C)C(=O)N(C)[C@@H](CC(C)C)C(=O)N(C)[C@@H](C(C)C)C(=O)N1C` [[(R)-3-(N,N-Diethylamino)propylthio-Sar]-3-[N-MeVal]-4-cyclosporin] (cyclo(A[dA][NMeL][NMeL][NMeV][MeBmt][Abu][X1][NMeV]V[NMeL])) and `C/C=C/C[C@@H](C)[C@@H](O)[C@H]1C(=O)N[C@@H](CC)C(=O)N(C)[C@H](SCCCN(CC)CC)C(=O)N(C)[C@@H](C(C)CC)C(=O)N[C@@H](C(C)C)C(=O)N(C)[C@@H](CC(C)C)C(=O)N[C@@H](C)C(=O)N[C@H](C)C(=O)N(C)[C@@H](CC(C)C)C(=O)N(C)[C@@H](CC(C)C)C(=O)N(C)[C@@H](C(C)C)C(=O)N1C` (stereo partly drawn) [[(R)-3-(N,N-Diethylamino)propylthio-Sar]-3-[NMeIle]-4-cyclosporin] (cyclo(A[dA][NMeL][NMeL][NMeV][MeBmt][Abu][X1][NMeIle(3ξ)]V[NMeL])) are within 1.5-fold of each other in EC50: 70 nM for the first, 80 nM for the second.

Same assay, conditions: Hepatitis C virus, Huh-7, Table 15, HCV replicon, read-out: Antiviral activity EC50

`C/C=C/C[C@@H](C)[C@@H](O)[C@H]1C(=O)N[C@@H](CC)C(=O)N(C)[C@H](CSCCCCC(CO)CO)C(=O)N(C)[C@@H](CC(C)(C)O)C(=O)N[C@@H](C(C)C)C(=O)N(C)[C@@H](CC(C)C)C(=O)N[C@@H](C)C(=O)N[C@H](C)C(=O)N(C)[C@@H](CC(C)C)C(=O)N(C)[C@@H](CC(C)C)C(=O)N(C)[C@@H](C(C)C)C(=O)N1C` and `C/C=C/C[C@@H](C)[C@@H](O)[C@H]1C(=O)N[C@@H](CC)C(=O)N(C)[C@H](CSCC[C@H](CO)CCC)C(=O)N(C)[C@@H](CC(C)(C)O)C(=O)N[C@@H](C(C)C)C(=O)N(C)[C@@H](CC(C)C)C(=O)N[C@@H](C)C(=O)N[C@H](C)C(=O)N(C)[C@@H](CC(C)C)C(=O)N(C)[C@@H](CC(C)C)C(=O)N(C)[C@@H](C(C)C)C(=O)N1C` are the same in EC50: 70 nM for the first, 70 nM for the second.

`C/C=C/C[C@@H](C)[C@@H](O)[C@H]1C(=O)N[C@@H](CC)C(=O)N(C)[C@H](CSCC[C@@H](CO)CCC)C(=O)N(C)[C@@H](CC(C)(C)O)C(=O)N[C@@H](C(C)C)C(=O)N(C)[C@@H](CC(C)C)C(=O)N[C@@H](C)C(=O)N[C@H](C)C(=O)N(C)[C@@H](CC(C)C)C(=O)N(C)[C@@H](CC(C)C)C(=O)N(C)[C@@H](C(C)C)C(=O)N1C` and `C/C=C/C[C@@H](C)[C@@H](O)[C@H]1C(=O)N[C@@H](CC)C(=O)N(C)[C@H](CSCCCCC(C)(C)O)C(=O)N(C)[C@@H](CC(C)(C)O)C(=O)N[C@@H](C(C)C)C(=O)N(C)[C@@H](CC(C)C)C(=O)N[C@@H](C)C(=O)N[C@H](C)C(=O)N(C)[C@@H](CC(C)C)C(=O)N(C)[C@@H](CC(C)C)C(=O)N(C)[C@@H](C(C)C)C(=O)N1C` are within 1.5-fold of each other in EC50: 70 nM for the first, 60 nM for the second.

`C/C=C/C[C@@H](C)[C@@H](O)[C@H]1C(=O)N[C@@H](CC)C(=O)N(C)[C@H](CSC/C(=C/CN(CC)CC)CCC)C(=O)N(C)[C@@H](CC(C)(C)O)C(=O)N[C@@H](C(C)C)C(=O)N(C)[C@@H](CC(C)C)C(=O)N[C@@H](C)C(=O)N[C@H](C)C(=O)N(C)[C@@H](CC(C)C)C(=O)N(C)[C@@H](CC(C)C)C(=O)N(C)[C@@H](C(C)C)C(=O)N1C` was tested, and the EC50 was 60 nM.

Same assay, conditions: Table 10, HCV replicon, read-out: Antiviral activity EC50

Going from `C/C=C/C[C@@H](C)[C@@H](O)[C@H]1C(=O)N[C@@H](CC)C(=O)N(C)[C@H](SCCN(CC)CC)C(=O)N(C)[C@@H](C(C)C)C(=O)N[C@@H](C(C)C)C(=O)N(C)[C@@H](CC(C)C)C(=O)N[C@@H](C)C(=O)N[C@H](C)C(=O)N(C)[C@@H](CC(C)C)C(=O)N(C)[C@@H](CC(C)C)C(=O)N(C)[C@@H](C(C)C)C(=O)N1C` [(R)-2-(N,N-Diethylamino)ethylthio-Sar]-3-[N-MeVal]-4-cyclosporin] (cyclo(A[dA][NMeL][NMeL][NMeV][MeBmt][Abu][X2][NMeV]V[NMeL])) to `C/C=C/C[C@@H](C)[C@@H](O)[C@H]1C(=O)N[C@@H](CC)C(=O)N(C)[C@@H](SCCN(CC)CC)C(=O)N(C)[C@@H](C(C)C)C(=O)N[C@@H](C(C)C)C(=O)N(C)[C@@H](CC(C)C)C(=O)N[C@@H](C)C(=O)N[C@H](C)C(=O)N(C)[C@@H](CC(C)C)C(=O)N(C)[C@@H](CC(C)C)C(=O)N(C)[C@@H](C(C)C)C(=O)N1C` [(S)-2-(N,N-Diethylamino)ethylthio-Sar]-3-[N-MeVal]-4-cyclosporin] (cyclo(A[dA][NMeL][NMeL][NMeV][MeBmt][Abu][X7][NMeV]V[NMeL])), the EC50 rises from 40 nM to 3660 nM (92-fold).

First: CC=CCC(C)C(O)C1C(=O)NC(CC)C(=O)N(C)C(SCCN(CC(C)C)C(C)C)C(=O)N(C)C(CC(C)C)C(=O)NC(C(C)C)C(=O)N(C)C(CC(C)C)C(=O)NC(C)C(=O)NC(C)C(=O)N(C)C(CC(C)C)C(=O)N(C)C(CC(C)C)C(=O)N(C)C(C(C)C)C(=O)N1C [(S)-2-(N-iso-Butyl-N-iso-propylamino)ethylthio-Sar]-3-cyclosporin]
Second: (R)-2-(N-iso-Butyl-N-iso-propylamino)ethylthio-Sar]-3-cyclosporin
The EC50 of the first is 9.7-fold higher: 4650 nM for the first, 480 nM for the second. The second is the more potent here.

Same assay, conditions: Table 11, HCV replicon, read-out: Antiviral activity EC50

`C/C=C/C[C@@H](C)[C@@H](O)[C@H]1C(=O)N[C@@H](CC)C(=O)N(C)[C@H](SCCCN2CCOCC2)C(=O)N(C)[C@@H](CC(C)(C)OCc2ccc(OC)cc2)C(=O)N[C@@H](C(C)C)C(=O)N(C)[C@@H](CC(C)C)C(=O)N[C@@H](C)C(=O)N[C@H](C)C(=O)N(C)[C@@H](CC(C)C)C(=O)N(C)[C@@H](CC(C)C)C(=O)N(C)[C@@H](C(C)C)C(=O)N1C` (cyclo(A[dA][NMeL][NMeL][NMeV][MeBmt][Abu][X3][X12]V[NMeL])) and `C/C=C/C[C@@H](C)[C@@H](O)[C@H]1C(=O)N[C@@H](CC)C(=O)N(C)[C@H](SCCCN2CCOCC2)C(=O)N(C)[C@@H](CC(C)(C)OCc2ccccc2)C(=O)N[C@@H](C(C)C)C(=O)N(C)[C@@H](CC(C)C)C(=O)N[C@@H](C)C(=O)N[C@H](C)C(=O)N(C)[C@@H](CC(C)C)C(=O)N(C)[C@@H](CC(C)C)C(=O)N(C)[C@@H](C(C)C)C(=O)N1C` [[(R)-(3-(N-Morpholino)propylthio-Sar]-3-[(γ-benzyloxy)-N-MeLeu]-4-cyclosporin] (cyclo(A[dA][NMeL][NMeL][NMeV][MeBmt][Abu][X3][X8]V[NMeL])) are the same in EC50: 280 nM for the first, 280 nM for the second.

`CC=CCC(C)C(O)C1C(=O)NC(CC)C(=O)N(C)C(SCCCN2CCOCC2)C(=O)N(C)C(CC(C)(C)OCOCC)C(=O)NC(C(C)C)C(=O)N(C)C(CC(C)C)C(=O)NC(C)C(=O)NC(C)C(=O)N(C)C(CC(C)C)C(=O)N(C)C(CC(C)C)C(=O)N(C)C(C(C)C)C(=O)N1C` (centres unmarked) (cyclo([X4][Abu][X9][X13]V[NMeL]AA[NMeL][NMeL][NMeV]); configuration not given here) showed an EC50 of 160 nM.
